Data published in patent publication US20230372407A1, “METHODS FOR MODULATING TLR4 SIGNALING” (President and Fellows of Harvard College, priority 2020, published 2023).
Like-named read-outs stand apart in the source and are kept apart here.

Tests used:
TLR4 = assay type: cell-based, mouse
IAV/PR8-GFP = assay type: cell-based, mouse
VSV-GFP = assay type: cell-based, mouse
ISG expression [1] = test: ISG / BST2 expression in BMDCs (qRT-PCR, flow cytometry); assay type: cell-based, mouse
Ifnb1 expression = Ifnb1 expression by lamina propria DCs (qRT-PCR); assay type: in vivo, mouse; conditions: WT SPF mice, 150 ug oral gavage, 1.5 hrs
Description: To confirm the relevance of these findings in vivo, Ifnb1 expression by colon LP DCs was analyzed in WT SPF mice administered 150 ug of PSA by oral gavage.
RNA was isolated from whole tissues or the DC^+ and DC^− fractions of spleens, mLNs, and colons following manufacturer's instructions with the RNeasy mini kit (Qiagen). cDNA was prepared with the Quantitect Reverse Transcription Kit (Qiagen). qRT-PCR was performed on a QuantStudio7 Flex or Pro Real-Time PCR system (Applied Biosystems) with RT^2 SYBR Green ROX qPCR Mastermix (Qiagen). Amplification was achieved using an initial cycle of 95° C. for 10 min, followed by 40 cycles of 95° C. for 15 s and 60° C. for 1 min. Gene expression was normalized using Actb as a reference gene. The forward (f) and reverse (r) primers used to detect expression of the corresponding murine genes were as follows (SEQ ID NOs: 1-20, respectively):
Single-cell suspensions of the indicated tissues were prepared as described. DC positive and negative fractions were isolated with mouse pan-DC microbeads (Miltenyi), following the manufacturer's protocol.
GFWT C57BL/6 mice were administered B. fragilis strain NCTC 9343 or C. ramosum strain AO31 by oral gavage [200 uL, approximately 10^8-10^9 colony-forming units (CFU) per mouse]. […]

Human specimens = Human specimens response to PSA; assay type: cell-based
VSV strain Indiana = conditions: mouse, in vivo, po
CD4+FOXP3+ Tregs = test: Human colon biopsy cLP lymphocytes, IL-10 production by CD4+FOXP3+ Tregs; assay type: cell-based; conditions: total cLP lymphocytes from human colon biopsies, 6-10 days
Description: FIG. 13. PSA induces Tregs in cells obtained from human gut tissue biopsies. Total cLP lymphocytes from 8-10 human colon biopsies were treated with PBS, WT-OMV, DPSA-OMV, or purified PSA for 6-10 days. IL-10 production by CD4+FOXP3+ Tregs was assessed by flow cytometry and intracellular cytokine staining. ** p<0.01, One-way ANOVA. Error bars represent mean +S.E.M.

[2] = Mouse autoimmune disease model; assay type: in vivo; conditions: dependent on IFN-I signaling; data not shown
CD4+ T cells = assay type: cell-based; conditions: data not shown
ISG expression [3] = test: ISG expression in spleen (qRT-PCR); assay type: in vivo, mouse
ISG expression [4] = test: ISG expression in mesenteric lymph nodes (qRT-PCR); assay type: in vivo, mouse
[5] = WT SPF mice + metronidazole 7 days (Table 4)
[6] = WT SPF mice + metronidazole 7 days (Table 3)

## lipooligosaccharide [LOS]
TLR4; Tlr4−/− BMDCs vs WT
  IFNβ secretion by BMDCs: through TLR4
TLR4; WT BMDCs
  IFNβ secretion by BMDCs: dose-dependent manner

## polysaccharide A [PSA]
IAV/PR8-GFP
  antiviral effect against IAV/PR8-GFP: completely abrogated
  cell viability: increase in cell viability
  percentage of infected cells: significant reduction
VSV-GFP
  Protection from VSV-GFP infection: completely lost
  cell viability: increased cell viability
  percentage of infected (GFP+) cells: inhibited virus infection in a dose-dependent manner
ISG expression [1]; Ifnar1−/− and Ifnb1−/− BMDCs vs WT
  Surface BST2 levels: significantly reduced
ISG expression [1]; WT BMDCs, 24 hrs, 50 ug/mL, vs vehicle
  expression of a panel of ISGs: increase in expression
ISG expression [1]; WT BMDCs, 24 hrs, 100 ug/mL, vs vehicle
  BST2 mean fluorescence intensity (MFI): increased
Ifnb1 expression
  Ifnb1 expression by colon LP DCs: significant increase
Human specimens
  response of human specimens: dose-dependent manner
VSV strain Indiana
  daily and cumulative paralysis scores: decreased
  incidence of disease: decreased
  survival: enhanced survival
CD4+FOXP3+ Tregs
  IL-10 production by CD4+FOXP3+ Tregs: induces Tregs
[2]
  protective effects in a mouse autoimmune disease model: protective effects
TLR4; Myd88−/− BMDCs, 50 ug/mL, 6 hrs
  IFNβ secretion by BMDCs: significant decrease
TLR4; Tlr2−/− BMDCs vs WT, 50 ug/mL, 6 hrs
  IFNβ secretion by BMDCs: no effect
TLR4; Tlr4−/− BMDCs vs WT
  IFNβ secretion by BMDCs: completely lost the ability to secrete IFNβ
TLR4; Trif−/− BMDCs, 50 ug/mL, 6 hrs
  IFNβ secretion by BMDCs: lack of increased IFNβ secretion
TLR4; WT BMDCs
  IFNβ secretion by BMDCs: significantly induced
TLR4; dectin-1 deficient (Clec7a−/−) BMDCs vs WT, 50 ug/mL, 6 hrs
  IFNβ secretion by BMDCs: no effect
CD4+ T cells
  IL-10 secretion by CD4+ T cells: enhance IL-10 secretion

## Cc1ncc([N+](=O)[O-])n1CCO [metronidazole]
ISG expression [3]; [5]
  Ifit1 Spleen fold difference gene expression to WT SPF, Mean: 0.57 fold
  Ifit2 Spleen fold difference gene expression to WT SPF, Mean: 0.69 fold
  Ifit3 Spleen fold difference gene expression to WT SPF, Mean: 0.76 fold
  Irf7 Spleen fold difference gene expression to WT SPF, Mean: 0.68 fold
  Mx1 Spleen fold difference gene expression to WT SPF, Mean: 0.78 fold
  Oas/2 Spleen fold difference gene expression to WT SPF, Mean: 0.74 fold
  Rsad2 Spleen fold difference gene expression to WT SPF, Mean: 0.46 fold
ISG expression [3]; WT mice vs WT SPF
  ISG expression in spleen (panel): significant decreases in ISG expression
ISG expression [4]; [6]
  Ifit1 mLN fold difference gene expression to WT SPF, Mean: 0.57 fold
  Ifit2 mLN fold difference gene expression to WT SPF, Mean: 0.69 fold
  Ifit3 mLN fold difference gene expression to WT SPF, Mean: 0.76 fold
  Irf7 mLN fold difference gene expression to WT SPF, Mean: 0.68 fold
  Mx1 mLN fold difference gene expression to WT SPF, Mean: 0.78 fold
  Oas/2 mLN fold difference gene expression to WT SPF, Mean: 0.74 fold
  Rsad2 mLN fold difference gene expression to WT SPF, Mean: 0.46 fold
ISG expression [4]; WT mice vs WT SPF
  ISG expression in mLN (panel): significant decreases in ISG expression
